The values below come from patent US8703705B2, “Modified factor VIII peptides” (Apitope International NV, priority 2009, dated 2014).

No end group written: not given here.

One data set can be described thus: Solubility of peptide. It counts as physicochemical.
In data set [1] the test system is FVIII-DR2+ T cell hybridoma clones. Description: FVIII peptide specificity of T cell hybridomas generated from FVIII-/- HLA-DR2+ mice (IL-2 ELISA). It counts as cell-based, mouse. The note with it: of 19 hybridomas specific for factor VIII; factor VIII deficient HLA-DR2 mice. An excerpt: Factor VIII deficient mice expressing HLA-DR2 were immunised with factor VIII in adjuvant. Spleen cells from the immunised mice were restimulated in vitro with factor VIII and the resulting lymphoblasts were fused with BW5147, as described above. T-cell hybridomas were screened for their response to the 12 predicted peptides. Yet again, the majority of hybridomas responded to peptides DNIMV (SEQ ID NO: 11) and PRCLT (SEQ ID NO: 9). Of 19 hybridomas specific for factor VIII, 10 responded to DNIMV (SEQ ID NO: 11), 6 to PRCLT (SEQ ID NO: 9), 1 to PPIIA (SEQ ID NO: 4), 1 to SLYIS (SEQ ID NO: 3) and 1 to DTLLI (SEQ ID NO: 8).
The same method was followed as for (ii), except the mice were FVIII-deficient and HLA-DR2+.

The next data set relates to LNC from FVIII-DR2+ mice. Description: Recall responses of lymph node cells from FVIII-DR2+ mice primed with rhFVIII/CFA. The note with it: FVIII-DR2+ animals immunised with factor VIII in adjuvant; FIG. 3. The data set is classed as cell-based, mouse. An excerpt: HLA-DR2 transgenic mice were crossed with factor VIII deficient mice to create a model of haemophilia expressing the human HLA class II MHC molecule.
These FVIII-DR2+ animals were immunised with factor VIII in adjuvant. Draining lymph nodes were isolated and tested for their response to the peptide panel.
The same method was followed as for (i), except the mice were FVIII-deficient, HLA-DR2+ and murine MHC class II null.

Data set [2] relates to FVIII+DR2+ T cell hybridoma clones. Nature of the data set: FVIII peptide specificity of T cell hybridomas generated from DR2+ mice (IL-2 ELISA). The data set is classed as cell-based, mouse. The following applies: for number of hybridomas responding to peptide: of the 27 hybridomas screened, 20 μg/ml peptide, IL-2. An excerpt:
HLA-DR2 mice were first immunised with factor VIII in adjuvant. Spleen cells from immune mice were restimulated in vitro with factor VIII and the resulting lymphoblasts were fused with the BW5147 thymoma using polyethylene glycol.
T-cell hybridomas were selected in HAT medium and the hybridomas cloned and tested for their response to factor VIII. The hybridomas were then screened for their response to the 12 predicted peptides.
HLA-DR2+ murine MHC class II null mice were immunised as above. On day 10 draining lymph nodes were removed and lymphocytes cultured at 2.5×10^6 cells/ml, 1 ml/well in 24 well plates in the presence of 20 μg/ml rhFVIII for 3 days. Following this stimulation, lymphocytes were recovered, washed and fused with TCRα^−β^− BW fusion partner cells at a ratio of 4 BW cells to 1 lymphocyte, using polyethylene glycol as described by Nelson et al (1980) PNAS 77(5):2866. Fused cells were carefully washed and then plated out in flat bottomed 96 well plates for 2 days before the addition of HAT medium to select for T cell hybridomas. Cells were monitored for growth and approximately 10 days after fusions were performed, individual clones were selected and transferred to 24 well plates in HAT medium. Clones were maintained in HAT medium for at least 2 weeks before being weaned into HT medium and then complete medium. Clones were tested for antigenic specificity by culturing 100 μl of hybridoma cells with 5×10^4 Mgar cells in the presence and absence of 20 μg/ml rhFVIII overnight. Supernatants were then collected and assessed for IL-2 production by ELISA, with clones producing IL-2 in response to rhFVIII being considered positive for FVIII-specificity. To investigate the repertoire of predicted FVIII peptides FVIII-specific clones were again tested for IL-2 production, following overnight incubation with 20 μg/ml of each of the 12 peptides.

The next data set relates to HLA-DR2 transgenic mice. Nature of the data set: Tolerisation of FVIII-specific responses in DR2+ mice by peptide pre-treatment before priming with rhFVIII/CFA. The note with it: 3 x 100 μg i.p. in PBS prior to priming with rhFVIII/CFA; FIG. 6. The data set is classed as in vivo, mouse. On the procedure: HLA-DR2 transgenic mice were treated with either of the two soluble peptides, or PBS as a control, prior to immunisation with factor VIII in adjuvant. Draining lymph nodes were isolated and the cells restimulated in vitro with factor VIII protein in order to assess the immune status of the mice.
HLA-DR2+ murine MHC class II null mice were treated 3 times with 100 μg of DNIMV (SEQ ID NO: 11), PRCLT (SEQ ID NO: 9) or PPIIA (SEQ ID NO: 4) dissolved in PBS, or the equivalent volume of PBS alone. Peptides were administered intraperitoneally, with 3-4 days between each dose. Following the final administration, mice were primed with rhFVIII emulsified in complete Freunds adjuvant as for (i). 10 days later, draining lymph nodes were recovered and lymphocytes subsequently cultured in vitro with rhFVIII, or each of the tolerising peptides as well as control antigens, for 72 hours before the addition of tritiated thymidine as for (i). (vi) Tolerisation of FVIII-Specific Responses in DR2+Mice by Pre-Treatment with a Combination Immunodominant FVIII Peptides

Data set [3] has as its system FVIII-/- clones with fresh or fixed Mgar cells. Nature of the data set: Apitope test: presentation by fresh or paraformaldehyde-fixed Mgar cells to hybridoma clones, IL-2 by ELISA. It counts as cell-based, mouse. The note with it: Mgar cells fresh or fixed with 1% paraformaldehyde, 20 μg/ml, FIG. 5. On the procedure: In order to be an apitope, a peptide must be capable of binding to an MHC class I or II molecule without further antigen processing (i.e. trimming) and be presented to a T cell. In the present case, the capacity of peptides to be presented by fixed APC was investigated.
Mgar cells were either fresh or fixed with 1% paraformaldehyde. Clones were tested for antigenic specificity by culturing 100 μl of hybridoma cells with 5×10^4 Mgar cells in the presence and absence of 20 μg/ml rhFVIII or peptide epitopes overnight. Supernatants were then collected and assessed for IL-2 production by ELISA.

On to “DNIMVTFRNQASRPY [DNIMV, DNIMVTFRNQASRPY]”, for which the solubility entry in “Solubility of peptide” is listed as “partly, but not completely soluble”.

For “DTLLIIFKNQASRPY (listed as Homo sapiens) [FVIII 15mer peptide, first AA 478]”, the “number of hybridomas responding to peptide” value (from here on “number”) in data set [1] is recorded as 1.

Turning to EDNIMVTFRNQASR [EDNIMV, EDNIMVTFRNQASR], the solubility result in the data set “Solubility of peptide” is on record as “sufficiently soluble to allow intranasal peptide delivery”. Besides, in “Solubility of peptide” (compared with DNIMV), the “solubility relative to parent peptide” value is reported as “more soluble than DNIMV”.

Consider “GTLMVFFGNVDSSGI (listed as Homo sapiens) [FVIII 15mer peptide, first AA 2140]”, for which the “response of draining lymph node cells to peptide” value with LNC from FVIII-DR2+ mice is “weak response”.

As for “PPIIARYIRLHPTHY (listed as Homo sapiens) [FVIII 15mer peptide, first AA 2161]”, the “character of hybridoma response to peptide” value in data set [2] (27 hybridomas screened) was “weaker and less specific”. Moreover, the “number” value in data set [2] came to 3; in data set [1], 1.

On to “PRCLTRYYSSFVNME (listed as Homo sapiens) [FVIII 15mer peptide, first AA 545]”, for which the “suppression of the immune response to factor VIII (LNC recall to FVIII)” value in the data set with HLA-DR2 transgenic mice is “substantial suppression of the immune response to factor VIII”. The “presentation by live and fixed APC (function as apitope)” value in data set [3] was “presented by both live and fixed mgar cells”. Moreover, the “number” value in data set [2] is reported as 3; in data set [1] it was 6. Also, the “response of draining lymph node cells to peptide” value in the data set on LNC from FVIII-DR2+ mice was “responded well”.

On to “RYLRIHPQSWVHQIA (listed as Homo sapiens) [FVIII 15mer peptide, first AA 2322]”, for which, in the data set with LNC from FVIII-DR2+ mice, the “response of draining lymph node cells to peptide” value is recorded as “significant response”.

As to “SLYISQFIIMYSLDG (listed as Homo sapiens) [FVIII 15mer peptide, first AA 2114]”, the “number” value in data set [1] is reported as 1.
